Bridge positions count the residues as written; N and C are the ends. Ends that are not written are not given here.
What was measured:
Format in all cases: cell-based
[1] = system: Lactococcus lactis ATCC 11454; experiment: Inhibitory spectrum, critical dilution with spot test; conditions: purified mutacin, 5 μL spotted on soft agar lawn on TSAYE; reciprocal of highest dilution showing inhibition zone
Method: (§1) Streptococcus mutans 59.1 and 123.1 produce mutacins F-59.1 and D-123.1 respectively. Micrococcus luteus ATCC 272 (ATCC, Manassas, VA, USA) was used as the indicator strain for the mutacin activity assays. All bacteria were routinely grown aerobically at 37°C in TSBYE made of TSB (Difco laboratories, Detroit, MI, USA) supplemented with 0.3% yeast extract (Becton Dickinson & Co., Cockeysville, MD, USA) or on TSAYE plates made of TSA (Difco) enriched with 0.3% yeast extract. Lactobacillus salivarius strain (provided by Sylvain Moineau, Université Laval, Québec, QC, Canada) was cultivated aerobically at 30°C in MRS medium (Oxoid, Nepean, ON, Canada). Other bacterial strains used for the inhibitory spectra determination are described in Mota-Meira et al. and Morency et al.. Staphylococcus carnosus was obtained from the strain collection of the Department of Microbiology, Biochemistry and Bioinformatics (Université Laval).
(§2) Mutacin activity was determined by the spot test using Micrococcus luteus ATCC 272 as sensitive strain where two-fold dilutions were prepared in acidified (pH 2) peptone water (0.5%). Antibacterial activity spectra of purified mutacins was tested against a panel of bacterial strains using the critical dilution method combined with the spot test method as described previously. Briefly, overnight cultures of test strains in TSBYE were diluted in fresh broth before inoculating 5 mL of soft agar (0.75%) in order to obtain confluent lawns of growth on TSAYE plates. Five μL of purified mutacins, diluted in acidified (10 mM HCl) distilled water to promote solubility of the peptides, were deposited on the lawn and allowed to dry before appropriate incubation. Mutacin activity was expressed in AU/mL and corresponds to the reciprocal of the highest dilution showing a noticeable inhibition zone on the lawn.

[2] = system: Lactobacillus salivarius SMQ 876; experiment: as above; conditions: purified mutacin, 5 μL spotted on soft agar lawn; reciprocal of highest dilution showing inhibition zone
Method: as §1, §2

[3] = system: Bacillus cereus ATCC 2; experiment: as above; conditions: purified mutacin, 5 μL spotted on soft agar lawn on TSAYE; reciprocal of highest dilution showing inhibition zone
Method: as §1, §2

[4] = system: Staphylococcus carnosus; experiment: as above; conditions: purified mutacin, 5 μL spotted on soft agar lawn on TSAYE; reciprocal of highest dilution showing inhibition zone
Method: as §1, §2

[5] = system: Listeria grayi ATCC 19120; experiment: as above; conditions: purified mutacin, 5 μL spotted on soft agar lawn on TSAYE; reciprocal of highest dilution showing inhibition zone
Method: as §1, §2

[6] = system: Listeria ivanovii HPB 28; experiment: as above; conditions: purified mutacin, 5 μL spotted on soft agar lawn on TSAYE; reciprocal of highest dilution showing inhibition zone
Method: as §1, §2

[7] = system: Micrococcus luteus ATCC 272; experiment: as above; conditions: purified mutacin, 5 μL spotted on soft agar lawn on TSAYE; reciprocal of highest dilution showing inhibition zone
Method: as §1, §2

[8] = system: Streptococcus suis serotype 2; experiment: as above; conditions: purified mutacin, 5 μL spotted on soft agar lawn on TSAYE; reciprocal of highest dilution showing inhibition zone
Method: as §1, §2

[9] = system: Streptococcus pyogenes ATCC 10389; experiment: as above; conditions: purified mutacin, 5 μL spotted on soft agar lawn on TSAYE; reciprocal of highest dilution showing inhibition zone
Method: as §1, §2

[10] = system: Bacillus subtilis ATCC 6051; experiment: as above; conditions: purified mutacin, 5 μL spotted on soft agar lawn on TSAYE; reciprocal of highest dilution showing inhibition zone
Method: as §1, §2

[11] = system: Streptococcus sobrinus ATCC 27352; experiment: as above; conditions: purified mutacin, 5 μL spotted on soft agar lawn on TSAYE; reciprocal of highest dilution showing inhibition zone
Method: as §1, §2

[12] = system: Pediococcus acidilactici UL5; experiment: as above; conditions: purified mutacin, 5 μL spotted on soft agar lawn on TSAYE; reciprocal of highest dilution showing inhibition zone
Method: as §1, §2

[13] = system: Micrococcus luteus ATCC 272; experiment: Mutacin activity assay (spot test) of preparations during production and purification
Method: as §1
Purification of the two mutacins was achieved by two hydrophobic chromatography steps as previously described by replacing TFA with HCl (10 mM). Briefly, the active preparation was loaded on a Sep-Pak® Vac 35 cc (10 g) t-C18 Cartridge (Waters Corporation, Milford, MA, USA). Cartridges were first equilibrated with 500 mL of methanol followed by 500 mL of deionized distilled water. Antibacterial compounds were eluted with successive steps of 500 mL of water:methanol mixtures increasing the gradient of methanol by 10% from 0 to 100% in 10 mM HCl. This was carried out at a flow rate of 1 mL/min and UV detection at 214 nm. The final purification step was carried out by reverse phase chromatography (RP)-HPLC analysis (Beckman Gold Model, Coulter Canada Inc., Mississauga, ON, Canada) using an analytical C18 column (Luna 5 μ C18(2), 250 × 4.6 mm, 4 × 3.0 mm, Phenomenex, Torrance, CA, USA). Elution was carried out with solvent A (5% acetonitrile, 10 mM HCl) and solvent B (60% acetonitrile, 10 mM HCl) and recorded at 214 nm. The following program of elution was developed: 0 to 3 min, constant 100% A; 3 to 15 min, a linear gradient from 100% A to 100% B; 15 to 20 min, constant 100% B; 20 to 23 min, a linear gradient from 100% B to 100% A. A flow rate of 1 mL/min was used. The column was maintained at 39°C with a column heater. Active fractions were manually collected, subsequently dried in a Speed-Vac® concentrator (Model SC110A, Savant Instrument Inc. Farmingdale, NY, USA) and then kept at -20°C until processing. Protein concentration in active fractions was determined using the BioRad DC protein assay (BioRad, Mississauga, ON, Canada).
as §2

KYYGNGVTCGKHSCSVDWSKATTNI (disulfide 9-14 (inferred)) [mutacin F-59.1, pediocin-like (class IIa) bacteriocin of 25 amino acids produced by Streptococcus mutans 59.1; UniProt P86386]
Activity of mutacin against Lactococcus lactis ATCC 11454 [1]: 400 AU/mL | Activity of mutacin against Lactobacillus salivarius SMQ 876 [2]: 0 AU/mL | Activity of mutacin against Bacillus cereus ATCC 2 [3]: 400 AU/mL | Activity of mutacin against Staphylococcus carnosus [4]: 800 AU/mL | Activity of mutacin against Listeria grayi ATCC 19120 [5]: 200 AU/mL | Activity of mutacin against Listeria ivanovii HPB 28 [6]: 200 AU/mL | Activity of mutacin against Micrococcus luteus ATCC 272 [7]: 3200 AU/mL | Activity of mutacin against Streptococcus suis serotype 2 [8]: 0 AU/mL | Activity of mutacin against Streptococcus pyogenes ATCC 10389 [9]: 0 AU/mL | Activity of mutacin against Bacillus subtilis ATCC 6051 [10]: 400 AU/mL | Activity of mutacin against Streptococcus sobrinus ATCC 27352 [11]: 800 AU/mL | Activity of mutacin against Pediococcus acidilactici UL5 [12]: 800 AU/mL | Activity ([13]; step: C18 RP-HPLC (purified), spot test on M. luteus ATCC 272, two-fold dilutions): 16000 AU/mL | Specific activity (final, purified mutacin) ([13]; step: C18 RP-HPLC, per mg total protein (BioRad DC assay)): 3.2 × 10^5 AU/mg | Specific activity ([13]; step: Sep-Pak C18, per mg total protein (BioRad DC assay)): 101 AU/mg | Activity ([13]; step: Sep-Pak C18, spot test on M. luteus ATCC 272, two-fold dilutions): 3200 AU/mL | Activity ([13]; step: culture supernatant (crude preparation), spot test on M. luteus ATCC 272, two-fold dilutions in acidified (pH 2) peptone water): 400 AU/mL | Specific activity ([13]; step: culture supernatant, per mg total protein (BioRad DC assay)): 40 AU/mg

Source: PMC3088537, “Production, purification, sequencing and activity spectra of mutacins D-123.1 and F-59.1” (BMC Microbiology, 2011)
